# Data published in US20110312962A1, “NOVEL 2-MORPHOLINO-3-AMIDO-PYRIDINE DERIVATIVES AND THEIR MEDICAL USE” (NEUROSEARCH A/S, priority 2008, published 2011).
# Target: T1, human Kv7.2+3 (Homo sapiens, UniProt O43525+O43526)
# T1 construct: expressed in transfected cells; host or cells: HEK293
# Experiment: FLIPR-based characterization of Kv7.2+3 modulators (thallium influx, BTC-AM)
# Assay type: cell-based
# Conditions: HEK293 cells over-expressing human Kv7.2+3; for EC50: Tl+ influx FLIPR, 50% of channel activity compared to retigabine control responses; for Emax: maximal response relative to the reference (retigabine) response, read-out: Efficacy
# Description: This experiment determines the ability of a test compound to modulate the activity of Kv7.2+3 channels heterologously expressed in human HEK293 cells. The ability is determined relative to retigabine. The activity is determined using a standard thallium (I) sensitive assay, e.g. using a fluorometric method in a Fluorescent Image Plate Reader (FLIPR) as described below in more detail.
# Full concentration/response curves are generated and EC50 values are calculated based on max values. EC50 values (Effective Concentration) represent the concentration of the test substance, at which 50% of the channel activity is obtained when compared to retigabine control responses. Maximal response determined relative to the reference (retigabine) response is calculated.
# Human HEK293 cells over-expressing human Kv7.2+3 are grown in culture medium (DMEM supplemented with 10% foetal bovine serum), in polystyrene culture flasks ([…]) in a humidified atmosphere of 5% CO2 in air, at 37° C. Cell confluence should be 80-90% on day of plating. Cells are rinsed with 4 ml of PBS (phosphate buffered saline) and incubated 2 min with 1 ml of Trypsin-EDTA. After addition of 25 ml of culture medium cells are re-suspended by trituration with a 25 ml pipette.
# The cells are seeded at a density of ˜3×10^6 cells/ml (25 μl/well) in black-walled, clear bottom, 384-well plates pre-treated with 0.01 g/l poly-D-lysin (20 μl/well for 30 min). Plated cells were allowed to proliferate for 24 h before loading with dye.
# BTC-AM (50 mg, Invitrogen) is added 25.5 μl DMSO. The BTC-AM stock solution (2 mM) is diluted to a final concentration of 2 μM in Cl^− free assay buffer (in mM: 140 Na^+-gluconate, 2.5 K^+-gluconate, 6 Ca2^+-gluconate, 1 Mg^2+ gluconate, 5 glucose, 10 HEPES, pH 7.3) containing 2 μM ouabain, 2 mM amaranth and 1 mM tartrazine.
# The culture medium is aspirated from the wells, the cells are washed thrice in Cl^− free assay buffer, and 25 μl of the BTC-AM loading solution is added to each well. The cells are incubated at 37° C. for 60 min.
# After the loading period, the TI^+-sensitive BTC fluorescence signal is measured over time using a FLIPR.
# • Temperature: Room temp. • First addition: 12 μl test or control compound after 15 sec at a rate of 30 μl/sec and starting height of 20 μl • Second addition: 12 μl stimulus buffer (Cl^− free assay buffer supplemented with 1 mM TI2SO4, 5 mM K2SO4 as well as the quenchers amaranth (2 mM) and tartrazine (1 mM)) is added after an additional 3 minutes at a rate of 30 μl/sec and starting height of 30 μl • Reading intervals: First sequence—3 sec×5, 2 sec×24 and 5 sec×25 Second sequence—1 sec×5, 2 sec×24 and 5 sec×36 Addition plates (compound plate and stimulus plate) are placed in positions 2 and 3, respectively. Cell plates are placed in position 1 and run using the “KCNQ (two additions)” program. FLIPR will then take the appropriate measurements in accordance with the interval settings above. Fluorescence obtained after stimulation is corrected for the mean basal fluorescence (in Cl^− free assay buffer).
# Full concentration/response curves are generated and EC50 values (“Effective Concentration”; the concentration at which 50% of the channel activity is obtained when compared to retigabine control responses) are calculated based on peak values. Maxi-mal response determined relative to the reference (retigabine) response is calculated.
EC50,Emax,SMILES
5400 nM,86%,"CC(C)(Nc1ccc(NC(=O)Cc2cc(F)cc(F)c2)c(N2CCOCC2)n1)c1ccc(F)cc1 [Compound 2.2, 2-(3,5-Difluoro-phenyl)-N-{6-[1-(4-fluoro-phenyl)-1-methyl-ethylamino]-2-morpholin-4-yl-pyridin-3-yl}-acetamide]"
230 nM,88%,O=C(Cc1ccc(Cl)cc1)Nc1ccc(NCc2ccc(F)cc2)nc1N1CCOCC1 [Compound 2.11]
210 nM,86%,"O=C(Cc1ccccc1F)Nc1ccc(NCc2ccc(F)cc2)nc1N1CCOCC1 [Compound 2.9, N-[6-(4-Fluoro-benzylamino)-2-morpholin-4-yl-pyridin-3-yl]-2-(2-fluoro-phenyl)-acetamide]"
4100 nM,47%,O=C(Cc1ccc(Cl)cc1Cl)Nc1ccc(NCc2ccc(F)cc2)nc1N1CCOCC1 [Compound 2.7]
11000 nM,28%,"O=C(Nc1ccc(NCc2ccc(F)cc2)nc1N1CCOCC1)c1cccnc1F [Compound 2.15, 2-fluoro-N-[6-[(4-fluorophenyl)-methylamino]-2-morpholino-3-pyridyl]-pyridine-3-carboxamide]"
590 nM,87%,"O=C(Cc1cccc(C(F)(F)F)c1)Nc1ccc(NCc2ccc(F)cc2)nc1N1CCOCC1 [Compound 2.8, N-[6-(4-Fluoro-benzylamino)-2-morpholin-4-yl-pyridin-3-yl]-2-(3-trifluoromethyl-phenyl)-acetamide]"
780 nM,104%,"O=C(Cc1ccc2c(c1)OCO2)Nc1ccc(NCc2ccc(F)cc2)nc1N1CCOCC1 [Compound 2.4, 2-Benzo[1,3]dioxol-5-yl-N-[6-(4-fluoro-benzylamino)-2-morpholin-4-yl-pyridin-3-yl]-acetamide]"
330 nM,88%,"COc1cccc(CC(=O)Nc2ccc(NCc3ccc(F)cc3)nc2N2CCOCC2)c1 [Compound 2.6, N-[6-(4-Fluoro-benzylamino)-2-morpholin-4-yl-pyridin-3-yl]-2-(3-methoxy-phenyl)-acetamide]"
900 nM,80%,"O=C(Cc1ccc(Cl)nc1)Nc1ccc(NCc2ccc(F)cc2)nc1N1CCOCC1 [Compound 2.14, 2-(6-chloro-3-pyridyl)-N-[6-[(4-fluorophenyl)-methylamino]-2-morpholino-3-pyridyl]acetamide]"
840 nM,98%,"COc1ccc(CC(=O)Nc2ccc(NCc3ccc(F)cc3)nc2N2CCOCC2)cc1 [Compound 2.5, N-[6-(4-Fluoro-benzylamino)-2-morpholin-4-yl-pyridin-3-yl]-2-(4-methoxy-phenyl)-acetamide]"
2700 nM,87%,O=C(CSc1ccc(F)cc1)Nc1ccc(NCc2ccc(F)cc2)nc1N1CCOCC1 [Compound 2.12]
6600 nM,86%,"O=C(COc1cccc(F)c1)Nc1ccc(NCc2ccc(F)cc2)nc1N1CCOCC1 [Compound 2.13, 2-(3-fluorophenoxy)-N-[6-[(4-fluorophenyl)-methylamino]-2-morpholino-3-pyridyl]acetamide]"
10000 nM,52%,"Cc1ccccc1C(=O)Nc1ccc(NCc2ccc(F)cc2)nc1N1CCOCC1 [Compound 2.3, N-[6-(4-Fluoro-benzylamino)-2-morpholin-4-yl-pyridin-3-yl]-2-methyl-benzamide]"
35 nM,93%,"O=C(Cc1cccc(F)c1)Nc1ccc(NCc2ccc(F)cc2)nc1N1CCOCC1 [Compound 2.10, N-[6-(4-Fluoro-benzylamino)-2-morpholin-4-yl-pyridin-3-yl]-2-(3-fluoro-phenyl)-acetamide]"
130 nM,100%,"O=C(Cc1cc(F)cc(F)c1)Nc1ccc(NCc2ccc(F)cc2)nc1N1CCOCC1 [Compound 2.1, 2-(3,5-Difluoro-phenyl)-N-[6-(4-fluoro-benzylamino)-2-morpholin-4-yl-pyridin-3-yl]-acetamide]"
